Assay results published in patent US20220388953A1, “COMPOUNDS WITH ANTIMICROBIAL ACTIVITY” (The Hong Kong Polytechnic University, priority 2018, published 2022).
≈ marks a conversion by molar mass, not a printed value. Read-outs that look alike come from different tables or passages of the source.

Key:
[1] = tested on: Streptococcus pneumoniae (Klein) Chester (ATCC 49619); assay: Antimicrobial assay, broth microdilution (CLSI), MIC; type: cell-based
Procedure: C3 derivatives were synthesized and antimicrobial activity measured against Streptococcus pneumoniae (MIC, minimum inhibitory concentration).
Bacterial Strains was used in this study is Streptococcus pneumoniae (Klein) Chester (ATCC® 49619™)
The antimicrobial activity of the compounds was determined by broth microdilution according to the Clinical & Laboratory Standards Institute (CLSI) guidelines. The test medium was cation-adjusted Mueller-Hinton broth (MH). Serial two-fold dilutions were performed for the tested chemicals starting from 256 μg/mL to 0.5 μg/mL, and the bacterial cell inoculum was adjusted to approximately 5×10^5 CFU/mL. Results were taken after 20 h of incubation at 37° C. The MIC was defined as the lowest concentration of antibiotic with no visible growth. Experiments were performed in duplicates.

[2] = tested on: β′ CH −σ^A interaction; assay: ELISA-based binding assay using σ^A and a GST-tagged β′ subunit fragment (β′-CH); set-up: species or system Bacillus subtilis; conditions: inhibitor compounds used at 500 μM (FIG. 3)
Procedure: FIG. 3 depicts a graph showing assay results of hit compound activity determined by ELISA of the β′ CH −σ^A interaction. Inhibitor compounds C1-C7 were used at 500 μM.

[3] = ATCC49619, Table 1, Streptococcus pneumoniae ATCC 49619, 20 h at 37° C., read-out: MIC
[4] = Streptococcus pneumoniae, ATCC49619, 20 h
[5] = ATCC49619, Table 3, Streptococcus pneumoniae ATCC 49619, 20 h at 37° C., read-out: MIC

Structure (SMILES): O=C(O)c1ccccc1C(=O)c1ccc(Nc2cccc(CO)c2)c([N+](=O)[O-])c1 [C3-19, 2-(4-((3-(Hydroxymethyl)phenyl)amino)-3-nitrobenzoyl)benzoic Acid]
- MIC [1, 3]: > 256 µg/mL
- melting point: 132 to 134 °C

Structure (SMILES): COc1ccccc1Sc1ccc(C(=O)c2ccccc2C(=O)O)cc1[N+](=O)[O-] [C3-2, 2-(4-((2-Methoxyphenyl)thio)-3-nitrobenzoyl)benzoic Acid]
- MIC [1, 3]: 128 µg/mL (≈ 313 µM)
- melting point: 209 to 211 °C

Structure (SMILES): O=C(O)c1ccccc1C(=O)c1ccc(Nc2ccc(Cl)c(Cl)c2)c([N+](=O)[O-])c1 [C3-23, 2-(4-((3,4-Dichlorophenyl)amino)-3-nitrobenzoyl)benzoic Acid]
- MIC [1, 4]: 64 µg/mL (≈ 148 µM)
- melting point: 115 to 117 °C

Structure (SMILES): O=C(O)c1ccccc1C(=O)c1ccc(NCc2ccccc2)c([N+](=O)[O-])c1 [C3-29, 2-(4-(Benzylamino)-3-nitrobenzoyl)benzoic Acid]
- MIC [1, 3]: 256 µg/mL (≈ 680 µM)
- melting point: 88 to 90 °C

Structure (SMILES): Nc1ccccc1Sc1ccc(C(=O)c2ccccc2C(=O)O)cc1[N+](=O)[O-] [C3-1, 2-(4-((2-Aminophenyl)thio)-3-nitrobenzoyl)benzoic Acid]
- inhibitory activity against the binding of σ^A and β′ fragments [2]: possessed inhibitory activity

Structure (SMILES): Cc1cccc(Nc2ccc(C(=O)c3ccccc3C(=O)O)cc2[N+](=O)[O-])c1 [C3-18, 2-(3-Nitro-4-(m-tolylamino)benzoyl)benzoic Acid]
- MIC [1, 3]: 128 µg/mL (≈ 340 µM)
- melting point: 90 to 92 °C

Structure (SMILES): O=C(Nc1cccc(Sc2ccc(C(=O)c3ccccc3C(=O)O)cc2[N+](=O)[O-])c1)c1ccccc1 [C3-9, 2-(4-((3-Benzamidophenyl)thio)-3-nitrobenzoyl)benzoic Acid]
- MIC [1, 3]: 32 µg/mL (≈ 64.2 µM)
- melting point: 144 to 145 °C

Structure (SMILES): Nc1ccc(Sc2ccc(C(=O)c3ccccc3C(=O)O)cc2[N+](=O)[O-])cc1 [C3-6, 2-(4-((4-Aminophenyl)thio)-3-nitrobenzoyl)benzoic Acid]
- MIC [1, 4]: 128 µg/mL (≈ 325 µM)

Structure (SMILES): O=C(O)c1ccccc1C(=O)c1ccc(Nc2cccc3cccnc23)c([N+](=O)[O-])c1 [C3-26, 2-(3-Nitro-4-(quinolin-8-ylamino)benzoyl)benzoic Acid]
- MIC [1, 3]: > 256 µg/mL
- melting point: 151 to 153 °C

Structure (SMILES): CC(=O)Nc1cccc(Sc2ccc(C(=O)c3ccccc3C(=O)O)cc2[N+](=O)[O-])c1 [C3-8, 2-(4-((3-Acetamidophenyl)thio)-3-nitrobenzoyl)benzoic Acid]
- MIC [1, 3]: 256 µg/mL (≈ 587 µM)
- melting point: 144 to 146 °C

Structure (SMILES): Cc1cccc(N2C(=O)c3ccccc3C2(O)c2ccc(Sc3ccccc3N)c([N+](=O)[O-])c2)c1 (stereo not shown) [C3-45]
- MIC [1, 5]: > 256 µg/mL

Structure (SMILES): CC(C)(C)c1cccc(Nc2ccc(C(=O)c3ccccc3C(=O)O)cc2[N+](=O)[O-])c1 [C3-21, 2-(4-((3-(tert-Butyl)phenyl)amino)-3-nitrobenzoyl)benzoic Acid]
- MIC [1, 3]: 256 µg/mL (≈ 612 µM)
- melting point: 110 to 112 °C

Structure (SMILES): O=C(O)c1ccccc1C(=O)c1ccc(Sc2ccccc2F)c([N+](=O)[O-])c1 [C3-3, 2-(4-((2-Fluorophenyl)thio)-3-nitrobenzoyl)benzoic Acid]
- MIC [1, 3]: 128 µg/mL (≈ 322 µM)
- melting point: 175 to 176 °C

Structure (SMILES): CCN(CC)C(=O)c1ccc(Sc2ccc(C(=O)c3ccccc3C(=O)O)cc2[N+](=O)[O-])c([N+](=O)[O-])c1 [C3-14, 2-(4-((4-(Diethylcarbamoyl)-2-nitrophenyl)thio)-3-nitrobenzoyl)benzoic Acid]
- MIC [1, 4]: 256 µg/mL (≈ 489 µM)
- melting point: 129 to 130 °C

Structure (SMILES): O=C(O)c1ccccc1C(=O)c1ccc(Sc2ccccn2)c([N+](=O)[O-])c1 [C3-4, 2-(3-Nitro-4-(pyridin-2-ylthio)benzoyl)benzoic Acid]
- MIC [1, 3]: > 256 µg/mL
- melting point: 205 to 206 °C

Structure (SMILES): O=C(O)c1ccccc1C(=O)c1ccc(Sc2ccc(Cl)cc2Cl)c([N+](=O)[O-])c1 [C3-11, 2-(4-((2,4-Dichlorophenyl)thio)-3-nitrobenzoyl)benzoic Acid]
- MIC [1, 4]: 32 µg/mL (≈ 71.4 µM)
- melting point: 260 to 262 °C

Structure (SMILES): Nc1ccccc1Sc1ccc(C2(O)c3ccccc3C(=O)N2c2ccccc2)cc1[N+](=O)[O-] (stereo not shown) [C3-41]
- MIC [1, 4]: > 256 µg/mL

Structure (SMILES): Nc1ccccc1Sc1ccc(C2(O)c3ccccc3C(=O)N2c2cccc(Cl)c2)cc1[N+](=O)[O-] (stereo not shown) [C3-46]
- MIC [1, 4]: > 256 µg/mL

Structure (SMILES): COc1ccc(Nc2ccc(C(=O)c3ccccc3C(=O)O)cc2[N+](=O)[O-])cc1 [C3-24, 2-(4-((4-Methoxyphenyl)amino)-3-nitrobenzoyl)benzoic Acid]
- MIC [1, 3]: > 256 µg/mL
- melting point: 225 to 226 °C

Structure (SMILES): NC(=O)c1cccc(Nc2ccc(C(=O)c3ccccc3C(=O)O)cc2[N+](=O)[O-])c1 [C3-22, 2-(4-((3-Carbamoylphenyl)amino)-3-nitrobenzoyl)benzoic Acid]
- MIC [1, 3]: > 256 µg/mL
- melting point: 139 to 141 °C

Structure (SMILES): Nc1ccccc1Nc1ccc(C(=O)c2ccccc2C(=O)O)cc1[N+](=O)[O-] [C3-17, 2-(4-((2-Aminophenyl)amino)-3-nitrobenzoyl)benzoic Acid]
- MIC [1, 4]: > 256 µg/mL
- melting point: 201 to 202 °C

Structure (SMILES): Nc1ccccc1Sc1ccc(C2(O)c3ccccc3C(=O)N2c2cccc(C(=O)O)c2)cc1[N+](=O)[O-] (stereo not shown) [C3-43]
- MIC [1, 4]: 64 µg/mL (≈ 125 µM)

Structure (SMILES): O=C(O)c1ccccc1C(=O)c1ccc(Nc2ccccc2)c([N+](=O)[O-])c1 [C3-25, 2-(3-Nitro-4-(phenylamino)benzoyl)benzoic Acid]
- MIC [1, 4]: 256 µg/mL (≈ 707 µM)
- melting point: 184 to 186 °C

Structure (SMILES): CC(C)(C)c1cccc(N2C(=O)c3ccccc3C2(O)c2ccc(Sc3ccccc3N)c([N+](=O)[O-])c2)c1 (stereo not shown) [C3-44]
- MIC [1, 5]: > 256 µg/mL

Structure (SMILES): Nc1ccccc1Sc1ccc(C2(O)NC(=O)c3ccccc32)cc1[N+](=O)[O-] (stereo not shown) [C3-39]
- MIC [1, 5]: 32 µg/mL (≈ 81.3 µM)

Structure (SMILES): O=C(O)c1ccccc1C(=O)c1ccc(Nc2nccs2)c([N+](=O)[O-])c1 [C3-27, 2-(3-Nitro-4-(thiazol-2-ylamino)benzoyl)benzoic Acid]
- MIC [1, 3]: > 256 µg/mL
- melting point: 99 to 100 °C

Structure (SMILES): CC(C)Nc1cccc(Sc2ccc(C(=O)c3ccccc3C(=O)O)cc2[N+](=O)[O-])c1 [C3-7, 2-(4-((3-(Isopropylamino)phenyl)thio)-3-nitrobenzoyl)benzoic Acid]
- MIC [1, 3]: 32 µg/mL (≈ 73.3 µM)
- melting point: 130 to 132 °C

Structure (SMILES): Cc1cccc([N+](=O)[O-])c1Sc1ccc(C(=O)c2ccccc2C(=O)O)cc1[N+](=O)[O-] [C3-15, 2-(4-((2-Methyl-6-nitrophenyl)thio)-3-nitrobenzoyl)benzoic Acid]
- MIC [1, 4]: 128 µg/mL (≈ 292 µM)
- melting point: 269 to 271 °C

Structure (SMILES): Cc1ccc(Sc2ccc(C(=O)c3ccccc3C(=O)O)cc2[N+](=O)[O-])c(C)c1 [C3-12, 2-(4-((2,4-Dimethylphenyl)thio)-3-nitrobenzoyl)benzoic Acid]
- MIC [1, 4]: 32 µg/mL (≈ 78.5 µM)
- melting point: 240 to 242 °C

Structure (SMILES): Cc1occc1Sc1ccc(C(=O)c2ccccc2C(=O)O)cc1[N+](=O)[O-] [C3-16, 2-(4-((2-Methylfuran-3-yl)thio)-3-nitrobenzoyl)benzoic Acid]
- MIC [1, 3]: 256 µg/mL (≈ 668 µM)
- melting point: 198 to 199 °C
